Drawing on patent publication US9549932B2, “2-(morpholin-4-yl)-1,7-naphthyridines” (BAYER PHARMA AKTIENGESELLSCHAFT, priority 2014, dated 2017), this text covers IC50 for 36 compounds.

The test concerns the target full-length human ATR protein (Homo sapiens (Human), UniProt Q13535). The test is described as follows: Binding assay ATR (TR-FRET tracer displacement). The note with it: TR-FRET. In outline: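 Full-length human GST-ATR co-purified with ATRIP, pre-complexed 30 min at 22 °C with anti-GST-Tb antibody, then pre-bound with compound 10 min. Tracer A or B added (2 µl of 100 nM solution), 30 min at 22 °C.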

Setting [1] is: tracer A, read-out: ATR binding (tracer A) IC50.
The mark [2] stands for this setting: tracer B, read-out: ATR binding (tracer B) IC50.

For orientation: IC50 means the point on the concentration scale where inhibition reaches its midpoint.

Like-named read-outs stand apart in the source and are kept apart here.

Sequence of full-length human ATR protein (Q13535 other isoform, or with tags, fused parts or gaps): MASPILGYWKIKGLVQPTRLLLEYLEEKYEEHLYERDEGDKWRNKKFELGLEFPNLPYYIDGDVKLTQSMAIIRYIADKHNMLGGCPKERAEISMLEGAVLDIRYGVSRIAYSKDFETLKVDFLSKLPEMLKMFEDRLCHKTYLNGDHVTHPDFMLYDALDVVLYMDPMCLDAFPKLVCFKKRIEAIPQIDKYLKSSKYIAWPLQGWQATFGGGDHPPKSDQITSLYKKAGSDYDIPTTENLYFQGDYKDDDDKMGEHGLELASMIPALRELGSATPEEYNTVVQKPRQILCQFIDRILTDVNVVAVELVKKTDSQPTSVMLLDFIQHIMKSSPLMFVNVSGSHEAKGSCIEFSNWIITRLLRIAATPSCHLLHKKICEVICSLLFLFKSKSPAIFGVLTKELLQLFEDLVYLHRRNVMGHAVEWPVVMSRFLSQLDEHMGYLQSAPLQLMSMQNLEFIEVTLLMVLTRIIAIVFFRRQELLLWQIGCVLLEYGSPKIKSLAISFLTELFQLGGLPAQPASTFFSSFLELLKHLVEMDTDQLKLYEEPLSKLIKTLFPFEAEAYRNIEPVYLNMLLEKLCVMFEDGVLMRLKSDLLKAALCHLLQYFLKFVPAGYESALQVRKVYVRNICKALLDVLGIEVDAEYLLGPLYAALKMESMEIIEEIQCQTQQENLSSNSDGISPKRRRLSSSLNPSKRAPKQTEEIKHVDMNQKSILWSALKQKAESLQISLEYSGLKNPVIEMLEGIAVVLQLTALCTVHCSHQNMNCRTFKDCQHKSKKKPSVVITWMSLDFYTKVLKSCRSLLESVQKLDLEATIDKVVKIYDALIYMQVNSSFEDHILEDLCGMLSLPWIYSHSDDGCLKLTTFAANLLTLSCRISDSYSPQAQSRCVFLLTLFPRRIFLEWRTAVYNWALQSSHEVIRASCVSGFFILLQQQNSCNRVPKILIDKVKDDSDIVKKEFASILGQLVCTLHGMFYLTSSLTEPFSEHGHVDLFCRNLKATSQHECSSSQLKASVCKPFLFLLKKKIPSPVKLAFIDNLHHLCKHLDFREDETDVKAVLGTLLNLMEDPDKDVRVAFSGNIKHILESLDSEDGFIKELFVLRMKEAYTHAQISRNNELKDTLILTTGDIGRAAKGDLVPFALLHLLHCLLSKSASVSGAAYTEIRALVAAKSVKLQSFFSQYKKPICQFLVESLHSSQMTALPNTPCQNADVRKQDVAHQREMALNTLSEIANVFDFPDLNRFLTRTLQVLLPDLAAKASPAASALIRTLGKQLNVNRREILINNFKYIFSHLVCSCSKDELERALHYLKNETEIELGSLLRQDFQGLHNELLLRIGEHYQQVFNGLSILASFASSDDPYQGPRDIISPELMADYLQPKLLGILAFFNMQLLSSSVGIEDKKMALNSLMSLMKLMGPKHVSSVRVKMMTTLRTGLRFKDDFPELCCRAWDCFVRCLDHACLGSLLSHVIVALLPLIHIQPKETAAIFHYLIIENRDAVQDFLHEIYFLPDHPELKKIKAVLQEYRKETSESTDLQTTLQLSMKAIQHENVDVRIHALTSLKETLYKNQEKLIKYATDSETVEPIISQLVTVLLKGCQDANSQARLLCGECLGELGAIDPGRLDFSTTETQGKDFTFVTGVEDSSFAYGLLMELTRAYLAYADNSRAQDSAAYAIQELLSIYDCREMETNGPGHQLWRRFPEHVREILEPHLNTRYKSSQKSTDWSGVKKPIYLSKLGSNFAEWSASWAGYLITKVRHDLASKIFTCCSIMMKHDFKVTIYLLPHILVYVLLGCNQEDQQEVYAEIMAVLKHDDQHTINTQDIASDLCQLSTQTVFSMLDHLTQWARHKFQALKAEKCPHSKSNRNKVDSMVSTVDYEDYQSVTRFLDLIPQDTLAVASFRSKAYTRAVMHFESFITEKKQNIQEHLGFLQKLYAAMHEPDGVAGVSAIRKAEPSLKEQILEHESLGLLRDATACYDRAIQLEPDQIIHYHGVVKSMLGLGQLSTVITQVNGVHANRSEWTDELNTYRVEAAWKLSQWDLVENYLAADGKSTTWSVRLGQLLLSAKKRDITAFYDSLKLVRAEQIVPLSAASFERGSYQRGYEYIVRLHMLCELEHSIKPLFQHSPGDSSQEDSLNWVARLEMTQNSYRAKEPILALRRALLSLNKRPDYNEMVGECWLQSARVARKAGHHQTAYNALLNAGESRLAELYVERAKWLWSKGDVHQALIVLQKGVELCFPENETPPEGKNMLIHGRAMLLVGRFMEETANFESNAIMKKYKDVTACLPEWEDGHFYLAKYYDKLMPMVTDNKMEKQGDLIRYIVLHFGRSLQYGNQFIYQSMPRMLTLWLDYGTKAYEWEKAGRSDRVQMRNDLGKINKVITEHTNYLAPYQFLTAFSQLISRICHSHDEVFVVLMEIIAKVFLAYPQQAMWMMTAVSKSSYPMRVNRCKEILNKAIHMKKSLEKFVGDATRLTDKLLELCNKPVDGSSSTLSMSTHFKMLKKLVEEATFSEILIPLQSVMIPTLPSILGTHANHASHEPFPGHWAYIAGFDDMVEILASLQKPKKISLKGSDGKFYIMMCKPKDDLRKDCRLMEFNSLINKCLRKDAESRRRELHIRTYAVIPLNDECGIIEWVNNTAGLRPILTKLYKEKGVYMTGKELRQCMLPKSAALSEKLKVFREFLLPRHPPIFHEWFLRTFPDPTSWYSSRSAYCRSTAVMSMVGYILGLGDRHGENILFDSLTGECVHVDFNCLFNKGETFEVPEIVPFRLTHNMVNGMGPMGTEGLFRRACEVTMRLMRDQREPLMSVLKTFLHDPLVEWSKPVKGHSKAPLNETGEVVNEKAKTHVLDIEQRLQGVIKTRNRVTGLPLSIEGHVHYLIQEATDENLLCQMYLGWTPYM
Sequence of full-length human ATR protein (Q8WXE1 other isoform, or with tags, fused parts or gaps partner): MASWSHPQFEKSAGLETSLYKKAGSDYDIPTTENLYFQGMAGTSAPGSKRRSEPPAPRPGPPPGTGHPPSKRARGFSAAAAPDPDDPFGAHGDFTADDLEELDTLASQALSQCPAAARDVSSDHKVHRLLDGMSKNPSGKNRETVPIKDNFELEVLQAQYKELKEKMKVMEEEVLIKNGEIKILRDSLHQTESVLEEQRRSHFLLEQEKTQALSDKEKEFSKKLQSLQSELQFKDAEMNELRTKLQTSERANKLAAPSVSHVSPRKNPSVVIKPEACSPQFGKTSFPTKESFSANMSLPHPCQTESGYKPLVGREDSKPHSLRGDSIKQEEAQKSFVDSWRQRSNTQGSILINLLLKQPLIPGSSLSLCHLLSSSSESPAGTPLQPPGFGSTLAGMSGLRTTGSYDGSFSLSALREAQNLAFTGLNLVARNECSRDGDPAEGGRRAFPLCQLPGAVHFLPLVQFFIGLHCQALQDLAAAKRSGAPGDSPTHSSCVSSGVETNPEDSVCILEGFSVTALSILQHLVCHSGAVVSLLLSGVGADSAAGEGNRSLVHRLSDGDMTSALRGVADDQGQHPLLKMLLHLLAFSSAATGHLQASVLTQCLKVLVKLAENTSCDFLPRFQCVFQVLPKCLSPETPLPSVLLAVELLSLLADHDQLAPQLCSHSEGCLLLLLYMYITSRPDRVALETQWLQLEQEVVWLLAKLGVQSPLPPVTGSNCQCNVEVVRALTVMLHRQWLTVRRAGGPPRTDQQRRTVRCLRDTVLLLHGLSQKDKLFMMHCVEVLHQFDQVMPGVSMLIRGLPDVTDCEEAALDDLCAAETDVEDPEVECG

`C[C@@H]1COCCN1c1cc(-c2cnc(F)cc2F)c2ccnc(-c3ccn[nH]3)c2n1` [Example 247, 4-(4,6-difluoropyridin-3-yl)-2-[(3R)-3-methylmorpholin-4-yl]-8-(1H-pyrazol-5-yl)-1,7-naphthyridine]: the IC50 under setting [1] was found to be 21.6 nM. On the same count and under the same terms, with `C[C@@H]1COCCN1c1cc(-c2cnn(C(C)(C)C)c2)c2ccnc(-c3ccn[nH]3)c2n1` [Example 257, 4-(1-tert-butyl-1H-pyrazol-4-yl)-2-[(3R)-3-methylmorpholin-4-yl]-8-(1H-pyrazol-5-yl)-1,7-naphthyridine] the figure was 58.8 nM. The same measure, in the same setting: with `OCc1ccc(-c2cc(N3CCOCC3)nc3c(-c4ccn[nH]4)nccc23)s1` [Example 358, {5-[2-(morpholin-4-yl)-8-(1H-pyrazol-5-yl)-1,7-naphthyridin-4-yl]thiophen-2-yl}methanol] the figure was 46.4 nM. As for `C[C@@H]1COCCN1c1cc(N2CCOCC2)nc2c(-c3ccn[nH]3)nccc12` [Example 148, 4-[(3R)-3-methylmorpholin-4-yl]-2-(morpholin-4-yl)-8-(1H-pyrazol-5-yl)-1,7-naphthyridine], under setting [1], the IC50 is 47.9 nM. On the same count and under the same terms, with `CCOP(=O)(CC(C)C)c1cc(N2CCOC[C@H]2C)nc2c(-c3ccn[nH]3)nccc12` (stereo partly drawn) [Example 144, Ethyl isobutyl{2-[(3R)-3-methylmorpholin-4-yl]-8-(1H-pyrazol-5-yl)-1,7-naphthyridin-4-yl}phosphinate] the figure was 75.1 nM.

For the compound `c1cc(-c2nccc3c(OCC4CCCO4)cc(N4CCOCC4)nc23)[nH]n1` (stereo not drawn) [Example 46, 2-(morpholin-4-yl)-8-(1H-pyrazol-5-yl)-4-(tetrahydrofuran-2-ylmethoxy)-1,7-naphthyridine], the IC50 under setting [1] was determined as 262 nM.

Take `CCP(=O)(CC)c1cc(N2CCOC[C@H]2C)nc2c(-c3ccn[nH]3)nccc12` [Example 143, 4-(diethylphosphoryl)-2-[(3R)-3-methylmorpholin-4-yl]-8-(1H-pyrazol-5-yl)-1,7-naphthyridine]: under setting [1], the IC50 was 27.7 nM. For `Cc1ccncc1-c1cc(N2CCOCC2)nc2c(-c3ccn[nH]3)nccc12` [Example 292, 4-(4-methylpyridin-3-yl)-2-(morpholin-4-yl)-8-(1H-pyrazol-5-yl)-1,7-naphthyridine], the IC50 under setting [1] is 108 nM. Still for that read-out and setting: with `Cc1cc(-c2cc(N3CCOC[C@H]3C)nc3c(-c4ccn[nH]4)nccc23)c(C)s1` [Example 240, 4-(2,5-dimethylthiophen-3-yl)-2-[(3R)-3-methylmorpholin-4-yl]-8-(1H-pyrazol-5-yl)-1,7-naphthyridine] the figure was 30 nM; with `CN(C)C(=O)c1cccc(-c2cc(N3CCOCC3)nc3c(-c4ccn[nH]4)nccc23)c1` [Example 288, N,N-dimethyl-3-[2-(morpholin-4-yl)-8-(1H-pyrazol-5-yl)-1,7-naphthyridin-4-yl]benzamide], 345 nM; with `C[C@@H]1COCCN1c1cc(-c2ccnn2C2COC2)c2ccnc(-c3ccn[nH]3)c2n1` [Example 133, 2-[(3R)-3-methylmorpholin-4-yl]-4-[1-(oxetan-3-yl)-1H-pyrazol-5-yl]-8-(1H-pyrazol-5-yl)-1,7-naphthyridine], 27 nM.

For `C[C@@H]1COCCN1c1cc([C@H]2C[C@@H]2C)c2ccnc(-c3ccn[nH]3)c2n1` (stereo in doubt) [Example 171, 4-[(trans)-2-methylcyclopropyl]-2-[(3R)-3-methylmorpholin-4-yl]-8-(1H-pyrazol-5-yl)-1,7-naphthyridine], the IC50 under setting [1] amounted to 94.7 nM. On the same count and under the same terms, as for `c1ccc2c(c1)CN(c1cc(N3CCOCC3)nc3c(-c4ccn[nH]4)nccc13)C2` [Example 420, 4-(1,3-dihydro-2H-isoindol-2-yl)-2-(morpholin-4-yl)-8-(1H-pyrazol-5-yl)-1,7-naphthyridine], the figure is 602 nM. `CC(C)Oc1cc(N2CCOC[C@@H]2C)nc2c(-c3cc[nH]n3)nccc12` [Example 67, 4-isopropoxy-2-((S)-3-methylmorpholin-4-yl)-8-(1H-pyrazol-3-yl)-[1,7]naphthyridine]: the IC50 by setting is: under setting [1], 1000 nM; under setting [2], 1270 nM. As to `c1ccc2ncc(-c3cc(N4CCOCC4)nc4c(-c5ccn[nH]5)nccc34)cc2c1` [Example 354, 2-(morpholin-4-yl)-8-(1H-pyrazol-5-yl)-4-(quinolin-3-yl)-1,7-naphthyridine], the IC50 under setting [1] worked out at 84.7 nM. Same read-out and setting: with `COc1ccc2c(c1)cc(-c1cc(N3CCOCC3)nc3c(-c4ccn[nH]4)nccc13)n2C(=O)OC(C)(C)C` [Example 368, tert-butyl 5-methoxy-2-[2-(morpholin-4-yl)-8-(1H-pyrazol-5-yl)-1,7-naphthyridin-4-yl]-1H-indole-1-carboxylate] the figure was 3950 nM. The same measure, in the same setting: with `CN(CC(C)(C)C)c1cc(N2CCOCC2)nc2c(-c3ccn[nH]3)nccc12` [Example 436, N-(2,2-dimethylpropyl)-N-methyl-2-(morpholin-4-yl)-8-(1H-pyrazol-5-yl)-1,7-naphthyridin-4-amine] the figure was 24 nM; with `C[C@@H]1COCCN1c1cc(-c2ccccc2F)c2ccnc(-c3ccn[nH]3)c2n1` [Example 77, 4-(2-fluorophenyl)-2-[(3R)-3-methylmorpholin-4-yl]-8-(1H-pyrazol-5-yl)-1,7-naphthyridine], 8.92 nM.

Take `C[C@@H]1COCCN1c1cc(C2CC2)c2ccnc(-c3cc[nH]n3)c2n1` [Example 29, 4-cyclopropyl-2-((R)-3-methylmorpholin-4-yl)-8-(1H-pyrazol-3-yl)-[1,7]-naphthyridine]: the IC50 is 21.5 nM under setting [1] and 9.23 nM under setting [2].

As to `Fc1cccc(-c2cc(N3CCOCC3)nc3c(-c4ccn[nH]4)nccc23)c1` [Example 298, 4-(3-fluorophenyl)-2-(morpholin-4-yl)-8-(1H-pyrazol-5-yl)-1,7-naphthyridine], under setting [1], the IC50 stood at 59.2 nM. The same measure, in the same setting: as for `Fc1ccc(-c2cc(N3CCOCC3)nc3c(-c4ccn[nH]4)nccc23)cc1` [Example 314, 4-(4-fluorophenyl)-2-(morpholin-4-yl)-8-(1H-pyrazol-5-yl)-1,7-naphthyridine], the figure is 67.9 nM; as for `O=c1cc(-c2cc(N3CCOCC3)nc3c(-c4ccn[nH]4)nccc23)cc[nH]1` [Example 22, 4-[2-(morpholin-4-yl)-8-(1H-pyrazol-5-yl)-1,7-naphthyridin-4-yl]pyridin-2(1H)-one], 465 nM. With `CN1CC=C(c2cc(N3CCOCC3)nc3c(-c4ccn[nH]4)nccc23)CC1` [Example 14, 4-(1-methyl-1,2,3,6-tetrahydropyridin-4-yl)-2-(morpholin-4-yl)-8-(1H-pyrazol-5-yl)-1,7-naphthyridine], the IC50 is, setting by setting: under setting [1], 162 nM; under setting [2], 79.9 nM. Consider `C[C@@H]1COCCN1c1cc(-c2cc(S(C)(=O)=O)ccc2F)c2ccnc(-c3ccn[nH]3)c2n1` [Example 150, 4-[2-fluoro-5-(methylsulfonyl)phenyl]-2-[(3R)-3-methylmorpholin-4-yl]-8-(1H-pyrazol-5-yl)-1,7-naphthyridine], for which the IC50 under setting [1] stood at 50.3 nM. On to `CC(C)Oc1cc(N2CCOCC2)nc2c(-c3ccc[nH]3)nccc12` [Example 41, 2-(morpholin-4-yl)-4-(propan-2-yloxy)-8-(1H-pyrrol-2-yl)-1,7-naphthyridine], for which the IC50 under setting [1] was determined as 339 nM and the IC50 under setting [2] amounted to 230 nM. For `CC1CCN(c2cc(N3CCOCC3)nc3c(-c4ccn[nH]4)nccc23)CC1` [Example 415, 4-(4-methylpiperidin-1-yl)-2-(morpholin-4-yl)-8-(1H-pyrazol-5-yl)-1,7-naphthyridine], the IC50 under setting [1] came out at 32.7 nM. `Cc1cscc1-c1cc(N2CCOCC2)nc2c(-c3ccn[nH]3)nccc12` [Example 370, 4-(4-methylthiophen-3-yl)-2-(morpholin-4-yl)-8-(1H-pyrazol-5-yl)-1,7-naphthyridine]: the IC50 under setting [1] amounted to 35 nM. Same read-out and setting: as for `CN1CCN(c2cc(N3CCOCC3)nc3c(-c4ccn[nH]4)nccc23)CC1` [Example 182, 4-(4-methylpiperazin-1-yl)-2-(morpholin-4-yl)-8-(1H-pyrazol-5-yl)-1,7-naphthyridine], the figure is 632 nM; as for `c1cc(-c2nccc3c(-c4cnc(NC5CC5)nc4)cc(N4CCOCC4)nc23)[nH]n1` [Example 396, N-cyclopropyl-5-[2-(morpholin-4-yl)-8-(1H-pyrazol-5-yl)-1,7-naphthyridin-4-yl]pyrimidin-2-amine], 174 nM. Same read-out and setting: with `COc1ccc(Sc2cc(N3CCOC[C@H]3C)nc3c(-c4ccn[nH]4)nccc23)cc1` [Example 222] the figure was 50.2 nM; with `Cc1ccc(-c2cc(N3CCOC[C@H]3C)nc3c(-c4ccn[nH]4)nccc23)s1` [Example 100, 2-[(3R)-3-methylmorpholin-4-yl]-4-(5-methyl-2-thienyl)-8-(1H-pyrazol-5-yl)-1,7-naphthyridine], 16.5 nM. Turning to `CCOC(=O)N=S(C)(=O)c1cccc(-c2cc(N3CCOCC3)nc3c(-c4ccn[nH]4)nccc23)c1` (stereo not drawn) [Example 13], the IC50 under setting [1] came out at 141 nM and the IC50 under setting [2] was found to be 104 nM.

On to `Clc1cc(N2CCOCC2)nc2c(-c3cc[nH]n3)nccc12` [Example 62, 4-chloro-2-morpholin-4-yl-8-(1H-pyrazol-3-yl)-[1,7]naphthyridine], for which the IC50 by setting is: under setting [1], 997 nM; under setting [2], 707 nM. For `COc1ncccc1-c1cc(N2CCOC[C@H]2C)nc2c(-c3ccn[nH]3)nccc12` [Example 220, 4-(2-methoxypyridin-3-yl)-2-[(3R)-3-methylmorpholin-4-yl]-8-(1H-pyrazol-5-yl)-1,7-naphthyridine], the IC50 under setting [1] turned out to be 32.4 nM.

For the compound `CSc1ncc(-c2cc(N3CCOCC3)nc3c(-c4ccn[nH]4)nccc23)cn1` [Example 395, 4-[2-(methylsulfanyl)pyrimidin-5-yl]-2-(morpholin-4-yl)-8-(1H-pyrazol-5-yl)-1,7-naphthyridine], under setting [1], the IC50 amounted to 149 nM. On the same count and under the same terms, as for `C[C@@H]1COCCN1c1cc(N2CCn3ccnc3C2)c2ccnc(-c3ccn[nH]3)c2n1` [Example 86, 4-(5,6-dihydroimidazo[1,2-a]pyrazin-7(8H)-yl)-2-[(3R)-3-methylmorpholin-4-yl]-8-(1H-pyrazol-5-yl)-1,7-naphthyridine], the figure is 10.9 nM.
